In article PMC10791936, “Engineering allosteric inhibition of homoserine dehydrogenase by semi-rational saturation mutagenesis screening” (Frontiers in Bioengineering and Biotechnology, 2024):

Assays:
[1] = target: T1, CgHSD (Corynebacterium glutamicum, UniProt P08499, G378E); assay: enzyme activity inhibition, NADPH formation; format: biochemical; details: allosteric; 50 mM L-isoleucine; stated gain
T1 construct: gene hom; full-length hom in pET-28a, N-terminal His6 tag, expressed in E. coli Transetta (DE3), Ni purified; homotetramer by SEC

[2] = target: T2, CgHSD (Corynebacterium glutamicum, UniProt P08499); assay: enzyme activity inhibition, NADPH formation; format: biochemical; details: feedback inhibitor, allosteric; 5 mM L-isoleucine
T2 construct: gene hom; full-length hom in pET-28a, N-terminal His6 tag, expressed in E. coli Transetta (DE3), Ni purified; homotetramer by SEC

[3] = target: T3, CgHSD (Corynebacterium glutamicum, UniProt P08499, A384D); assay: enzyme activity inhibition, NADPH formation; format: biochemical; details: allosteric; 50 mM L-isoleucine; stated gain
T3 construct: gene hom; full-length hom in pET-28a, N-terminal His6 tag, expressed in E. coli Transetta (DE3), Ni purified; homotetramer by SEC

[4] = target: T4, CgHSD (Corynebacterium glutamicum, UniProt P08499, I397V); assay: enzyme activity inhibition, NADPH formation; format: biochemical; details: allosteric; 50 mM L-isoleucine; stated gain
T4 construct: gene hom; full-length hom in pET-28a, N-terminal His6 tag, expressed in E. coli Transetta (DE3), Ni purified; homotetramer by SEC

[5] = target: T2, CgHSD; assay: enzyme activity inhibition, NADPH formation; format: biochemical; details: feedback inhibitor, allosteric; 1 mM L-threonine
[6] = target: T1, CgHSD; assay: enzyme activity inhibition, NADPH formation; format: biochemical; details: allosteric; 50 mM L-threonine; stated gain
[7] = target: T3, CgHSD; assay: enzyme activity inhibition, NADPH formation; format: biochemical; details: allosteric; 10 mM L-threonine; stated gain
[8] = target: T4, CgHSD; assay: enzyme activity inhibition, NADPH formation; format: biochemical; details: allosteric; 10 mM L-threonine; stated gain
[9] = target: the molecule itself; assay: SEC; apparent molecular mass from a standard curve; peaks at 11.8 mL of elution volume; column and buffer not shown (Supplementary Figure S2)

T1 sequence (P08499 whole entry G378E): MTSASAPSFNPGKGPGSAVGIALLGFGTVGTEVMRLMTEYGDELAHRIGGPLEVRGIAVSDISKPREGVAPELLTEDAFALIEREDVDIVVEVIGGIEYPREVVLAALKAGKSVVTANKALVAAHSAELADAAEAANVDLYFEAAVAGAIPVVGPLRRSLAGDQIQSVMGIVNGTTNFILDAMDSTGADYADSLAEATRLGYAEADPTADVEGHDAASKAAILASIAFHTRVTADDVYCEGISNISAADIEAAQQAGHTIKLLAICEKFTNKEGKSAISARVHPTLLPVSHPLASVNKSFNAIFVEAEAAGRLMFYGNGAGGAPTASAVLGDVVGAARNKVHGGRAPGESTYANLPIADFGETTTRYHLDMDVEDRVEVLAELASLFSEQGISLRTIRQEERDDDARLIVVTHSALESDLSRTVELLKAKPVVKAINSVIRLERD

CC[C@H](C)[C@H](N)C(=O)O [L-isoleucine]
% activity maintained at 50 mM [1]: 61.0%
% activity loss at 5 mM [2]: > 75%
% activity maintained at 50 mM [3]: 76.5%
% activity maintained at 50 mM [4]: 50.1%

C[C@@H](O)[C@H](N)C(=O)O [L-threonine]
% activity loss at 1 mM [5]: > 80%
% retained activity at 50 mM [6]: 52.7%
% activity kept at 10 mM [7]: > 90%
% activity kept at 10 mM [8]: > 90%

B1: Homoserine dehydrogenase from Corynebacterium glutamicum (CgHSD), wild type (enzyme, Corynebacterium glutamicum ATCC 13032, UniProt P08499 1-445, looked up)
chain: MTSASAPSFNPGKGPGSAVGIALLGFGTVGTEVMRLMTEYGDELAHRIGGPLEVRGIAVSDISKPREGVAPELLTEDAFALIEREDVDIVVEVIGGIEYPREVVLAALKAGKSVVTANKALVAAHSAELADAAEAANVDLYFEAAVAGAIPVVGPLRRSLAGDQIQSVMGIVNGTTNFILDAMDSTGADYADSLAEATRLGYAEADPTADVEGHDAASKAAILASIAFHTRVTADDVYCEGISNISAADIEAAQQAGHTIKLLAICEKFTNKEGKSAISARVHPTLLPVSHPLASVNKSFNAIFVEAEAAGRLMFYGNGAGGAPTASAVLGDVVGAARNKVHGGRAPGESTYANLPIADFGETTTRYHLDMDVEDRVGVLAELASLFSEQGISLRTIRQEERDDDARLIVVTHSALESDLSRTVELLKAKPVVKAINSVIRLERD
notes: Homoserine dehydrogenase (hom gene) of Corynebacterium glutamicum ATCC 13032, amplified from genomic DNA into pET-28a (pET-hom); printed mass of the monomer 46.4 kDa; also called wild-type CgHSD
stoichiometry N [9]: 4

B2: Homoserine dehydrogenase from Corynebacterium glutamicum (CgHSD), I397V mutant (enzyme, Corynebacterium glutamicum ATCC 13032, UniProt P08499 1-445, looked up)
chain: MTSASAPSFNPGKGPGSAVGIALLGFGTVGTEVMRLMTEYGDELAHRIGGPLEVRGIAVSDISKPREGVAPELLTEDAFALIEREDVDIVVEVIGGIEYPREVVLAALKAGKSVVTANKALVAAHSAELADAAEAANVDLYFEAAVAGAIPVVGPLRRSLAGDQIQSVMGIVNGTTNFILDAMDSTGADYADSLAEATRLGYAEADPTADVEGHDAASKAAILASIAFHTRVTADDVYCEGISNISAADIEAAQQAGHTIKLLAICEKFTNKEGKSAISARVHPTLLPVSHPLASVNKSFNAIFVEAEAAGRLMFYGNGAGGAPTASAVLGDVVGAARNKVHGGRAPGESTYANLPIADFGETTTRYHLDMDVEDRVGVLAELASLFSEQGISLRTVRQEERDDDARLIVVTHSALESDLSRTVELLKAKPVVKAINSVIRLERD
stoichiometry N [9]: 4

B3: Homoserine dehydrogenase from Corynebacterium glutamicum (CgHSD), A384D mutant (enzyme, Corynebacterium glutamicum ATCC 13032, UniProt P08499 1-445, looked up)
chain: MTSASAPSFNPGKGPGSAVGIALLGFGTVGTEVMRLMTEYGDELAHRIGGPLEVRGIAVSDISKPREGVAPELLTEDAFALIEREDVDIVVEVIGGIEYPREVVLAALKAGKSVVTANKALVAAHSAELADAAEAANVDLYFEAAVAGAIPVVGPLRRSLAGDQIQSVMGIVNGTTNFILDAMDSTGADYADSLAEATRLGYAEADPTADVEGHDAASKAAILASIAFHTRVTADDVYCEGISNISAADIEAAQQAGHTIKLLAICEKFTNKEGKSAISARVHPTLLPVSHPLASVNKSFNAIFVEAEAAGRLMFYGNGAGGAPTASAVLGDVVGAARNKVHGGRAPGESTYANLPIADFGETTTRYHLDMDVEDRVGVLAELDSLFSEQGISLRTIRQEERDDDARLIVVTHSALESDLSRTVELLKAKPVVKAINSVIRLERD
stoichiometry N [9]: 4
